Data set [1] relates to D-type HBV. Nature of the data set: Single drug anti-HBV activity in HepG2-NTCP in vitro infection model. Particulars: for EC50: Hepatitis B virus, 216 h, HepG2-NTCP. The data set is classed as cell-based, Hepatitis B Virus. The procedure:
(§1) In this study, HepG2-NTCP cell in vitro infection model was used to evaluate the inhibitory activity of a combined administration of compound WWSO with Entecavir (ETV) on HBV The content of HBV DNA in cell supernatant was detected by real-time quantitative PCR (qPCR) method, and the content of HBeAg and HBsAg was detected by ELISA, and the anti-HBV activity of the combined action of the compound was determined, while CellTiter-Glo was used to detect the effect of the test compound on cell viability.
(§2) Cell line: HepG2-NTCP cell line was constructed and provided by WuXi AppTec. HepG2-NTCP cells were HepG2 cells stably transfected and continued to highly express the human NTCP gene, and were susceptible to be infected by HBV The cell medium was DMEM medium added with 10% fetal bovine serum, 1% Penicillin-Streptomycin, 1% glutamine, 1% non-essential amino acids and G418 (500 µg/mL).
Virus: D-type HBV was concentrated from HepG2.2.15 cell culture supernatants.
2.1 On day 0, HepG2-NTCP cells were seeded into a 48-well cell culture plate at a density of 75,000 cells/well, and then the cells were cultured at 5% CO2 and 37° C. overnight.
2.2 On day 2, HBV was added to infect HepG2-NTCP cells.
2.3 On day 3, WWSO and ETV single drugs were administered at seven different concentrations, respectively, or WWSO in combination with ETV was administered at 5 different concentrations in orthorhombic proportion, added to 48-well plates with each combination having three duplicate plates.
2.4 On day 6, the cell supernatant was discarded and fresh medium containing the compounds was added, and the cells were cultured at 5% CO2 and 37° C. for 3 days.
(§3) 2.5 On day 9, cell plate supernatant treated by compound was collected and DNA was extracted according to the QIAamp 96 DNA Blood Kit (12) instructions. HBeAg and HBsAg were detected according to the instructions of ELISA detection kit, meanwhile, the cytotoxicity of compound pairs was detected by CellTiter-Glo kit, and the chemiluminescence intensity (RLU) of each cell well was detected by multifunctional microplate reader according to the method of kit instructions. HBV DNA was quantified by qPCR method. HBV plasmid DNA was used as the standard, and standard HBV plasmid DNA concentration was diluted 7 points starting from 10^7 copies/µL at a 10-fold gradient. The HBV DNA copy number was calculated in each test sample by fitting the standard curve using the HBV DNA copy number and CT values of each standard.

Data set [2] in a line: Cytotoxicity in HepG2-NTCP cells by CellTiter-Glo. The format is cell-based, human. Particulars: human, single drug, day 9. The procedure: as §1, §2, §3
Data set [3] has as its system human primary hepatocytes (PHH). As to the kind of experiment: Cell viability of PHH by CellTiter-Glo. The format is cell-based. The protocol: (§4) The medium was replaced with the fresh medium containing the compound on days 4, 6, 8, 10, 12, 14, 16, 18 and 20. On day 22, the culture supernatant was collected and cell viability was detected using CellTiter-Glo. The final concentration of DMSO in the cell medium was 2%. The medium was replaced with the medium containing the compound on days 4 and 6. On day 8, the culture supernatant was collected for detecting HBV DNA, HBeAg and HBsAg, and then the collected supernatant was added with CellTiter-Glo to measure cell viability. The final concentration of DMSO in the medium was 2%. The medium was replaced with the medium containing the compound on days 4 and 6. On day 8, the culture supernatant was collected for detecting HBV DNA, HBeAg and HBsAg, and then the collected cell supernatant was added with CellTiter-Glo to measure cell viability. Cell viability detection: After collecting the cell culture supernatant, CellTiter-Glo was diluted with medium at a ratio of 1:1, and added to the cell plate, and left at room temperature for 10 minutes to detect the luminescence value with a microplate reader. Cell activity% = (luminescence value of sample-average value of blank control well)/(luminescence value of DMSO control group-average value of blank control well) × 100 CC50 and EC50 were calculated by GraphPad Prism software, and the inhibition curve fitting method was sigmoidal dose-response (variable slope).
(In general: ATP-based viability assays read luminescence as a measure of living cells.)

The nature of data set [4]: Cell viability of PHH by CellTiter-Glo. The format is cell-based, human. Particulars: human, primary human hepatocytes (PHH), HBV infection model, administration after infection, Day 22. The protocol:
as §4

The subject of data set [5] is D-type HBV. Nature of the data set: Single drug in vitro antiviral activity in HBV-infected PHH (HBV DNA qPCR, HBeAg and HBsAg ELISA). The data set is classed as cell-based, Hepatitis B Virus. Particulars: for EC50: Hepatitis B virus, 192 h, Day 8. The procedure:
1. The PHH model was used to evaluate the single drug in vitro antiviral activity of the test compound
On day 0, primary human hepatocytes were resuscitated and plated into two 48-well plates (1.32×10^5 cells/well).
On day 1, HBV was added to infect PHH (2000 GE/cell). […] Fresh medium with compound was replaced every 1 to 2 days.
The final concentration of DMSO in the medium was 2%.
The medium was replaced with the fresh medium containing the compound on days 4, 6, 8, 10, 12, 14, 16, 18 and 20. On day 22, the culture supernatant was collected and cell viability was detected using CellTiter-Glo.
Cell culture supernatants on days 8, 14 and 22 were collected for HBV DNA, HBeAg and HBsAg detection.
(§5) HBV DNA detection: DNA in the supernatant was extracted according to the DNA extraction kit (Qiagen-51162), and HBV DNA in the sample was quantified by qPCR method, and the qPCR reaction system is shown in Table 6. HBV plasmid DNA was used as a standard for 10-fold serial dilution, and the standard range was from 1.0× 10^7 copies/µL to 10 copies/µL. The PCR reaction program was: Heating at 95° C. for 10 minutes, then cycle mode was entered, and heating at 95° C. for 15 seconds, then at 60° C. for 1 minute for a total of 40 cycles. The HBV DNA content in the samples was calculated based on the standard curve and the Ct value of each sample.
(§6) Detection of HBeAg and HBsAg: According to the instructions of ELISA kit, the levels of HBeAg and HBsAg in supernatant were detected. The method was briefly described as follows: 50 µL, of standard was taken, and sample and control sample were added into the detection plate, then 50 µL of enzyme conjugate was added to each well, incubated at 37° C. for 60 minutes, and washed with a washing solution and then dried, and then 50 µL of pre-mixed luminescent substrate was added and the mixture was incubated at room temperature for 10 minutes in the dark, and finally the luminescence value was measured by a microplate reader. The content of HBeAg and HBsAg in the sample was calculated according to the standard curve and the chemiluminescence value of each sample.
(§7) Inhibition rate %=(1- HBV DNA content or HBsAg content or HBeAg content in the sample/HBV DNA content or HBsAg content or HBeAg content in DMSO control group) × 100
CC50 and EC50 were calculated by GraphPad Prism software, and the inhibition curve fitting method was sigmoidal dose-response (variable slope).
For orientation: Quantitative PCR measures a nucleic acid by following its amplification.

Another data set relates to HepG2-NTCP cells. Nature of the data set: Cytotoxicity in HepG2-NTCP cells by CellTiter-Glo. The data set is classed as cell-based, human. Particulars: single drug and combined action experiments. The protocol:
as §1, §2, §3

Data set [6] has as its system D-type HBV. As to the kind of experiment: Combined administration in HBV-infected PHH, 5x5 matrix, MacSynergy II analysis. The data set is classed as cell-based, Hepatitis B Virus. The conditions noted are these: two-drug combination with Peg-IFNα-2a; for antagonistic index (inhibition of HBsAg and HBeAg): 95% confidence interval. The procedure: On day 0, primary human hepatocytes were resuscitated and plated into six 48-well plates (1.32×10^5 cells/well).
On day 1, […] (2000 GE/cell). On the second day, different groups of combined drugs were added for treatment:
The arrangement of the compounds in the combined action is shown in Table 2, and the test concentrations of the compounds are shown in Table 3.
The final concentration of DMSO in the cell medium was 2%. The medium was replaced with the medium containing the compound on days 4 and 6. On day 8, the culture supernatant was collected for detecting HBV DNA, HBeAg and HBsAg, and then the collected supernatant was added with CellTiter-Glo to measure cell viability.
The arrangement of the compounds in the combined action is shown in Table 4, and the test concentrations of the compounds are shown in Table 5.
The final concentration of DMSO in the medium was 2%. The medium was replaced with the medium containing the compound on days 4 and 6. On day 8, the culture supernatant was collected for detecting HBV DNA, HBeAg and HBsAg, and then the collected cell supernatant was added with CellTiter-Glo to measure cell viability.
as §5, §6, §7
Combined efficacy was analyzed by MacSynergy™ II software.

This note sets out measurements from patent US20230183263A1, “COMBINATION FOR TREATING HEPATITIS B” (FUJIAN AKEYLINK BIOTECHNOLOGY CO., LTD., priority 2020, published 2023).

As a reminder, the EC50 is the midpoint of the concentration-response curve. The term CC50 denotes the concentration that lowers cell viability or growth by half. As to `C=C1[C@H](CO)[C@@H](O)C[C@@H]1n1cnc2c(=O)[nH]c(N)nc21` [ETV, Entecavir, reference compound], the EC50 in the data set on D-type HBV [1] (day 9, read-out: HBV DNA EC50) is 0.06 nM; in the data set on D-type HBV [1] (day 9, read-out: HBeAg EC50), > 20 nM; in the data set on D-type HBV [1] (day 9, read-out: HBsAg EC50), > 20 nM. Also, the CC50 at 9 day of experiment (read-out) in data set [2] was > 20 nM.

For the molecule `COCCCOc1cc2c(cc1Cl)-c1cc(=O)c(C(=O)O)cn1[C@H](c1cccs1)O2` [WWS0], the “inhibition of HBV DNA, HBeAg and HBsAg” value in the data set on D-type HBV [1] (HepG2-NTCP infected by HBV) was “dose-dependent manner”; with D-type HBV [5] (PHH in vitro infection model, single drug), “dose-dependent manner”. Besides, the EC50 was found to be 1.01 nM with D-type HBV [1] (day 9, read-out: HBV DNA EC50); 2.51 nM with D-type HBV [1] (day 9, read-out: HBeAg EC50); 3.19 nM with D-type HBV [1] (day 9, read-out: HBsAg EC50); 45.5 nM with D-type HBV [5] (PHH, administration after infection, read-out: EC50 (Day 8) HBV DNA); 32.4 nM in the data set with D-type HBV [5] (PHH, administration after infection, read-out: EC50 (Day 8) HBeAg); 47.3 nM with D-type HBV [5] (PHH, administration after infection, read-out: EC50 (Day 8) HBsAg). In addition, the EC50 in the data set on D-type HBV [5] (PHH, administration before infection, read-out: EC50 (Day 8) HBV DNA) was found to be 13.5 nM; in the data set with D-type HBV [5] (PHH, administration before infection, read-out: EC50 (Day 8) HBeAg), 26 nM; with D-type HBV [5] (PHH, administration before infection, read-out: EC50 (Day 8) HBsAg), 47.1 nM. In addition, the CC50 in data set [3] (administration before infection, Day 22) was > 1000 nM. The “cytotoxicity within the test concentration range” value in data set [3] (single drug and combined action experiment) is “no obvious cytotoxicity”; in the data set on HepG2-NTCP cells, “no obvious cytotoxicity”. In addition, in data set [4], the CC50 at 22 day of experiment (read-out) is > 1000 nM. Further, the “inhibition of HBV replication, administration before versus after HBV infection” value in the data set with D-type HBV [5] (PHH, two modes of administration compared) was “basically the same”. In data set [2], the CC50 at 9 day of experiment (read-out) was > 100 nM.

For the molecule `O=C(O)c1cn2c(cc1=O)-c1cc(Cl)c(OCCN3CCOCC3)cc1OC2c1ccccc1` (stereo not drawn) [WWS01], in the data set with D-type HBV [6], the “combined effect on the inhibition of HBsAg and HBeAg” value (“combined effect on the inhibition” below) is on record as “synergistic or additive effects”; the “antagonistic index (inhibition of HBsAg and HBeAg)” value was 0.

Take `COCCCOc1cc2c(cc1OC)-c1cc(=O)c(C(=O)O)cn1[C@H](c1sccc1Cl)O2` [WWS02]: in the data set with D-type HBV [6], the “combined effect on the inhibition” value was “synergistic or additive effects”; the “antagonistic index (inhibition of HBsAg and HBeAg)” value worked out at 0.

Take `O=C(O)c1cn2c(cc1=O)-c1cc(Cl)c(OCC3CC3)cc1O[C@H]2c1scnc1Cl` [WWS03]: in the data set on D-type HBV [6], the “combined effect on the inhibition” value is “synergistic or additive effects”; the “antagonistic index (inhibition of HBsAg and HBeAg)” value was found to be 0.
